7 compounds from ChEMBL document CHEMBL2417537, “Synthesis and antifungal activity of terpenyl-1,4-naphthoquinone and 1,4-anthracenedione derivatives” (Eur J Med Chem, 2013) can be followed below.

Converted amounts (≈) assume the structure as drawn. The source made the active and inactive calls. The rule behind the calls is not given here. Some results are limits rather than exact numbers.

In general, MIC90 refers to an inhibitory concentration at the 90% level, which refers to growth in some studies and to a panel of isolates in others. Broadly, the IC50 is the concentration that gives 50% inhibition.

A short description of data set [1]: Selectivity index, ratio of IC50 for african green monkey Vero cells to IC50 for Candida lusitaniae ATCC 200951. The data set is classed as toxicity, cell-based. Particulars: read-out: Ratio IC50.
A further data set has as its system Pichia kudriavzevii. Put plainly: Antifungal activity against Candida krusei ATCC 6258 after 24 hrs. The data set is classed as functional. To be noted: ATCC 6258, 24 h.
The test system of data set [2] is Candida tropicalis. Nature of the data set: Antifungal activity against Candida tropicalis CECT 11901 after 24 hrs. To be noted: CECT 11901, 24 h.
Data set [3] has as its system Trichophyton mentagrophytes. Put plainly: Antifungal activity against Trichophyton mentagrophytes ATCC 24198 after 6 days. The data set is classed as functional. To be noted: ATCC 24198, 144 h.
A short description of data set [4]: Selectivity index, ratio of IC50 for african green monkey Vero cells to IC50 for Candida krusei ATCC 6258. To be noted: read-out: Ratio IC50. It counts as toxicity, cell-based.
In another data set the test system is Fusarium oxysporum. Put plainly: Antifungal activity against Fusarium oxysporum ATCC 48112 after 48 hrs. It counts as functional. Particulars: ATCC 48112, 48 h.
A further data set relates to Trichophyton rubrum. Nature of the data set: Antifungal activity against Trichophyton rubrum ATCC 28188 after 6 days. It counts as functional. Particulars: ATCC 28188, 144 h.
The nature of data set [5]: Selectivity index, ratio of IC50 for african green monkey Vero cells to IC50 for Candida parapsilosis ATCC 22019. The data set is classed as toxicity, cell-based.
In a further data set the test system is Aspergillus terreus. Put plainly: Antifungal activity against Aspergillus terreus CDC 317 after 48 hrs. To be noted: CDC 317, 48 h. The data set is classed as functional.
The test system of a further data set is Clavispora lusitaniae. Put plainly: Antifungal activity against Candida lusitaniae ATCC 200951 after 24 hrs. Particulars: ATCC 200951, 24 h. The data set is classed as functional.
For data set [6], the system named is Candida tropicalis. Nature of the data set: Antifungal activity against Candida tropicalis ATCC 200956 after 24 hrs. It counts as functional. To be noted: ATCC 200956, 24 h.
A further data set has as its system Vero. Nature of the data set: Cytotoxicity against african green monkey Vero cells after 48 hrs by MTT assay. Particulars: Chlorocebus sabaeus. The data set is classed as cell-based. In general terms: Tetrazolium dyes change colour on reduction, which living cells bring about.
Data set [7] deals with Candida albicans. Nature of the data set: Antifungal activity against Candida albicans ATCC 10231 after 24 hrs. Particulars: ATCC 10231, 24 h. The data set is classed as functional.
The subject of data set [8] is Candida albicans. Nature of the data set: Antifungal activity against Candida albicans ATCC 90028 after 24 hrs. It counts as functional. To be noted: ATCC 90028, 24 h.
The next data set deals with Aspergillus fumigatus. Nature of the data set: Antifungal activity against Aspergillus fumigatus ATCC 204305 after 48 hrs. Particulars: ATCC 204305, 48 h. It counts as functional.
The subject of the next data set is Aspergillus flavus. Put plainly: Antifungal activity against Aspergillus flavus ATCC 204304 after 48 hrs. It counts as functional. To be noted: ATCC 204304, 48 h.
The subject of data set [9] is Candida parapsilosis. Put plainly: Antifungal activity against Candida parapsilosis ATCC 22019 at > MIC up to 24 hrs by time kill study. It counts as functional, organism-based.
Another data set has as its system Aspergillus niger. Put plainly: Antifungal activity against Aspergillus niger ATCC 16404 after 48 hrs. It counts as functional. To be noted: ATCC 16404, 48 h.
The nature of data set [10]: Selectivity index, ratio of IC50 for african green monkey Vero cells to IC50 for Aspergillus flavus ATCC 204304. The data set is classed as toxicity, cell-based. To be noted: read-out: Ratio IC50.
The subject of data set [11] is Candida parapsilosis. Nature of the data set: Antifungal activity against Candida parapsilosis ATCC 22019 after 24 hrs. Particulars: ATCC 22019, 24 h. It counts as functional.
The subject of data set [12] is Candida parapsilosis. Put plainly: Antifungal activity against Candida parapsilosis ATCC 22019 at 0.5 MIC up to 24 hrs by time kill study. The data set is classed as functional, organism-based.
Data set [13] in a line: Selectivity index, ratio of IC50 for african green monkey Vero cells to IC50 for Trichophyton mentagrophytes ATCC 24198. Particulars: read-out: Ratio IC50. It counts as toxicity, cell-based.
The nature of data set [14]: Selectivity index, ratio of IC50 for african green monkey Vero cells to IC50 for Aspergillus fumigatus ATCC 204305. It counts as toxicity, cell-based. To be noted: read-out: Ratio IC50.
Data set [15] is described as follows: Selectivity index, ratio of IC50 for african green monkey Vero cells to IC50 for Trichophyton rubrum ATCC 28188. The data set is classed as toxicity, cell-based. Particulars: read-out: Ratio IC50.

As for `CC1(C)CCCc2cc3c(cc21)C(=O)C(Cl)=C(Cl)C3=O`, the selectivity ratio in data set [1] is greater than 12.5; in [4] it was greater than 25; in data set [5], greater than 12.5; in data set [10], greater than 5.2. For the same compound, the MIC90 in the data set with Pichia kudriavzevii is 1 µg/mL (≈ 3.23 µM); against Candida tropicalis [2], greater than 32 µg/mL; in [3], 6.1 µg/mL (≈ 19.7 µM); against Fusarium oxysporum it was greater than 32 µg/mL; against Trichophyton rubrum, 8 µg/mL (≈ 25.9 µM); against Aspergillus terreus, greater than 32 µg/mL. Also, the MIC90 against Clavispora lusitaniae is 2 µg/mL (≈ 6.47 µM); in the data set on Candida tropicalis [6] it was 5 µg/mL (≈ 16.2 µM); against Candida albicans [7] it was greater than 32 µg/mL; with Candida albicans [8] it was 8 µg/mL (≈ 25.9 µM); against Aspergillus fumigatus it was 8 µg/mL (≈ 25.9 µM); with Aspergillus flavus, 4.8 µg/mL (≈ 15.5 µM). The MIC90 is greater than 32 µg/mL against Aspergillus niger and 2 µg/mL (≈ 6.47 µM) against Candida parapsilosis [11]. In the data set on Vero, this compound returned an IC50 of no more than 25 µg/mL. Also, the result in the data set on Candida parapsilosis [9] was Active. Also, the outcome with Candida parapsilosis [12] was inactive.

As for `COc1ccc(NC2=C(Cl)C(=O)c3cc(CCCC(C)C)ccc3C2=O)cc1`, the selectivity ratio in [1] was 2.2; in data set [13], 7.1. Moreover, the MIC90 in the data set with Pichia kudriavzevii is greater than 32 µg/mL; in the data set on Candida tropicalis [2] it was greater than 32 µg/mL; in [3], 5 µg/mL (≈ 12.6 µM); against Fusarium oxysporum, greater than 32 µg/mL; against Trichophyton rubrum, 12.7 µg/mL (≈ 31.9 µM); in the data set on Aspergillus terreus, greater than 32 µg/mL. Moreover, the MIC90 is 16 µg/mL (≈ 40.2 µM) against Clavispora lusitaniae; 32 µg/mL (≈ 80.4 µM) in the data set on Candida tropicalis [6]; greater than 32 µg/mL in the data set on Candida albicans [7]; greater than 32 µg/mL against Candida albicans [8]; greater than 32 µg/mL against Aspergillus fumigatus; greater than 32 µg/mL against Aspergillus flavus. Moreover, the MIC90 in the data set on Aspergillus niger and in the data set on Candida parapsilosis [11] was greater than 32 µg/mL each time. Besides, 35.6 µg/mL (≈ 89.5 µM) corresponded to half-maximal inhibition in the data set on Vero (IC50).

In the case of `CC(=O)NC1=C(Cl)C(=O)c2cc3c(cc2C1=O)CCCC3(C)C`, the selectivity ratio in [1] stood at 10.1; in data set [13], 7.1; in [14], 0.9. The MIC90 in the data set with Pichia kudriavzevii was 2.8 µg/mL (≈ 8.44 µM); with Candida tropicalis [2], 6.4 µg/mL (≈ 19.3 µM); in data set [3] it was 3.2 µg/mL (≈ 9.64 µM); against Fusarium oxysporum, 32 µg/mL (≈ 96.4 µM); against Trichophyton rubrum, 5 µg/mL (≈ 15.1 µM); against Aspergillus terreus, greater than 32 µg/mL. Further, the MIC90 in the data set on Clavispora lusitaniae is 2.2 µg/mL (≈ 6.63 µM); in the data set with Candida tropicalis [6] it was 4 µg/mL (≈ 12.1 µM); against Candida albicans [7], 4 µg/mL (≈ 12.1 µM); against Candida albicans [8], 8 µg/mL (≈ 24.1 µM); against Aspergillus fumigatus, 22.6 µg/mL (≈ 68.1 µM); with Aspergillus flavus, greater than 32 µg/mL. Moreover, the MIC90 in the data set on Aspergillus niger was greater than 32 µg/mL; with Candida parapsilosis [11], 8 µg/mL (≈ 24.1 µM). In the data set with Vero, this compound had an IC50 of 22.3 µg/mL (≈ 67.2 µM).

For the compound `CC1(C)CCCc2cc3c(cc21)C(=O)C=C(Cl)C3=O`, the MIC90 against Pichia kudriavzevii was 2 µg/mL (≈ 7.28 µM); against Candida tropicalis [2], 12.7 µg/mL (≈ 46.2 µM); in [3], 3.2 µg/mL (≈ 11.6 µM); with Fusarium oxysporum, 16 µg/mL (≈ 58.2 µM); in the data set on Trichophyton rubrum, 5 µg/mL (≈ 18.2 µM); against Aspergillus terreus, greater than 32 µg/mL. For the same compound, the MIC90 was 5 µg/mL (≈ 18.2 µM) against Clavispora lusitaniae; 8 µg/mL (≈ 29.1 µM) with Candida tropicalis [6]; 20.2 µg/mL (≈ 73.5 µM) against Candida albicans [7]; 16 µg/mL (≈ 58.2 µM) against Candida albicans [8]; 16 µg/mL (≈ 58.2 µM) against Aspergillus fumigatus; greater than 32 µg/mL against Aspergillus flavus. Besides, the MIC90 was greater than 32 µg/mL in the data set with Aspergillus niger and 4 µg/mL (≈ 14.6 µM) against Candida parapsilosis [11]. The figures for the selectivity ratio in data set [4], in data set [13] and in [14] were greater than 12.5, greater than 7.8 and greater than 1.6, respectively. Besides, half-maximal inhibition in the data set with Vero (IC50) was put at 109 µg/mL (≈ 397 µM). For the same compound, the outcome in the data set with Candida parapsilosis [9] was Active. Further, the outcome in the data set with Candida parapsilosis [12] was inactive.

In the case of `CC(C)CCCc1ccc2c(c1)C(=O)C(Cl)=C(Cl)C2=O`, the selectivity ratio in data set [1] is greater than 9.9; in [13] it was greater than 50; in data set [15], greater than 50; in [14], greater than 25. Moreover, the MIC90 is greater than 32 µg/mL against Pichia kudriavzevii; greater than 32 µg/mL against Candida tropicalis [2]; 4 µg/mL (≈ 12.9 µM) in data set [3]; greater than 32 µg/mL in the data set on Fusarium oxysporum; 4 µg/mL (≈ 12.9 µM) against Trichophyton rubrum; greater than 32 µg/mL in the data set with Aspergillus terreus. Further, the MIC90 against Clavispora lusitaniae is 20.2 µg/mL (≈ 64.9 µM); in the data set with Candida tropicalis [6], greater than 32 µg/mL; against Candida albicans [7], greater than 32 µg/mL; in the data set with Candida albicans [8], greater than 32 µg/mL; against Aspergillus fumigatus, 8 µg/mL (≈ 25.7 µM); against Aspergillus flavus, greater than 32 µg/mL. Also, the MIC90 with Aspergillus niger and against Candida parapsilosis [11] was greater than 32 µg/mL in each case. The IC50 in the data set on Vero was no less than 200 µg/mL.

As to `C[C@@H]1[C@H](O)[C@@H](C)/C=C/C=C/C=C/C=C/C=C/C=C/C=C/[C@H](O[C@@H]2O[C@H](C)[C@@H](O)[C@H](N)[C@@H]2O)C[C@@H]2O[C@](O)(C[C@@H](O)C[C@@H](O)[C@H](O)CC[C@@H](O)C[C@@H](O)CC(=O)O[C@H]1C)C[C@H](O)[C@H]2C(=O)O` [AMPHOTERICIN B], the MIC90 is 2 µg/mL (≈ 2.16 µM) in the data set on Pichia kudriavzevii; less than 0.004 µg/mL in data set [3]; less than 0.004 µg/mL in the data set on Trichophyton rubrum; 2 µg/mL (≈ 2.16 µM) in the data set on Aspergillus fumigatus; 4 µg/mL (≈ 4.33 µM) in the data set on Aspergillus flavus; 2 µg/mL (≈ 2.16 µM) with Candida parapsilosis [11]. This compound had an IC50 in the data set with Vero of 28.6 µg/mL (≈ 30.9 µM). The result in the data set on Candida parapsilosis [9] was Active. Moreover, the selectivity ratio in data set [10] worked out at 7.1.

As to `CC(C)=CCCc1ccc2c(c1)C(=O)C(Cl)=CC2=O`, the MIC90 with Pichia kudriavzevii was 2.4 µg/mL (≈ 8.74 µM); in the data set on Candida tropicalis [2], greater than 32 µg/mL; in [3], 6.4 µg/mL (≈ 23.3 µM); against Fusarium oxysporum it was 32 µg/mL (≈ 116 µM); in the data set on Trichophyton rubrum, 4 µg/mL (≈ 14.6 µM); in the data set with Aspergillus terreus, greater than 32 µg/mL. Further, the MIC90 was 3.2 µg/mL (≈ 11.6 µM) against Clavispora lusitaniae; 11.3 µg/mL (≈ 41.1 µM) in the data set on Candida tropicalis [6]; greater than 32 µg/mL against Candida albicans [7]; greater than 32 µg/mL in the data set on Candida albicans [8]; 11.3 µg/mL (≈ 41.1 µM) with Aspergillus fumigatus; greater than 32 µg/mL in the data set on Aspergillus flavus. In addition, the figures for the MIC90 against Aspergillus niger and against Candida parapsilosis [11] were greater than 32 µg/mL and 4 µg/mL (≈ 14.6 µM), respectively. Also, the selectivity ratio was determined as 10.9 in data set [4], 6.5 in [15] and 1.4 in data set [14]. The same compound displayed an IC50 with Vero of 26.1 µg/mL (≈ 95 µM).
